In patent publication US9120749B2, “Quinoline derivatives and MELK inhibitors containing the same” (ONCOTHERAPY SCIENCE, INC., priority 2010, dated 2015):
Where a name gives a salt, the structure may show the parent alone. Read-outs that look alike come from different tables or passages of the source.

Assays:
MELK = MELK (Homo sapiens, UniProt Q14680); assay: Kinase assay: MELK activity, phosphorylation of FITC-labeled histone H3 peptide measured by IMAP fluorescence polarization; assay type: biochemical; settings: 50 micro-M ATP, FITC-labeled histone H3 peptide substrate, IMAP fluorescence polarization, read-out: IC50 (μM) (kinase assay)
Sequence of MELK (Q14680 whole entry, looked up): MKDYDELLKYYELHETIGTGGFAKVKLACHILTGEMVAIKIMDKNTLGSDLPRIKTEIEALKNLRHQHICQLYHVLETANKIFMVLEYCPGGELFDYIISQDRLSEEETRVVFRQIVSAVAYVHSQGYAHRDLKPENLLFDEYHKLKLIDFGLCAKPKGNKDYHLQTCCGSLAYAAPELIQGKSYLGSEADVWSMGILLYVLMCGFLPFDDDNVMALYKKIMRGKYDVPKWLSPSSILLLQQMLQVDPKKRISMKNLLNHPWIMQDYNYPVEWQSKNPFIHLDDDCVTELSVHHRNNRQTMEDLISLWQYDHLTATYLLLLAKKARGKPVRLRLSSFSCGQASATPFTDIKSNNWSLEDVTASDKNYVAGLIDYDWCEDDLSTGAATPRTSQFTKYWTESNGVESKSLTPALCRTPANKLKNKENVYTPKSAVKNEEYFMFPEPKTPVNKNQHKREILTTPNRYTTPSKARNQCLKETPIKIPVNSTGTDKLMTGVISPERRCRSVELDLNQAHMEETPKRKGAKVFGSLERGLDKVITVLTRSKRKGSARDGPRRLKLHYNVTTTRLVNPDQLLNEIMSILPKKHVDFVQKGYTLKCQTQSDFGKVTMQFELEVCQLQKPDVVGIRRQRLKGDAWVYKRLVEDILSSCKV
Method in brief: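 A FITC-labelled histone H3 peptide served as substrate, with compounds serially diluted to 1% DMSO final. Reactions were stopped with three volumes of IMAP progressive binding solution. After 0.5 h at room temperature, fluorescence polarization was read.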

BT-549 cells = assay: Cell-based assay: anti-proliferative activity, Cell Counting Kit-8, 72 hours (BT-549); settings: BT549 cells, MELK-expressing, Cell Counting Kit-8 at 72 hours
Method: To evaluate the expression status of MELK in several cell lines, western blot analysis was performed using crude cell lysate collected from those cells. Anti-MELK antibody (clone 31, BD Biosciences) was used to visualize the expression.
Active candidate inhibitors against MELK were evaluated for their target-specific cytotoxicity using T47D, A549, BT-549, and HT-1197 cells was used for negative control. 100 micro-L of cell suspension was seeded onto 96-well microtiter plate (ViewPlate-96FTC, PerkinElmer). The initial cell concentration of T47D, A549, BT-549, and HT-1197 were 3,000 cells/well, 2,000 cells/well and 2,500 cells/well, respectively. Cellular growth was determined using Cell Counting Kit-8 (DOJINDO) at 72 hours after the exposure of the candidate inhibitors. […] Accurate IC50 values were calculated as described previously.

T47D cells = assay: Cell-based assay: anti-proliferative activity, Cell Counting Kit-8, 72 hours (T47D); settings: MELK-expressing, Cell Counting Kit-8 at 72 hours
Method in brief: (§1)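 T47D, A549 and BT-549 cells, with MELK-negative HT-1197 as control (MELK status checked by western blot), seeded at 2,000–3,000 cells/well. Growth measured by CCK-8 72 hours after inhibitor exposure; IC50 values calculated.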

A549 cells = assay: Cell-based assay: anti-proliferative activity, Cell Counting Kit-8, 72 hours (A549); settings: MELK-expressing, Cell Counting Kit-8 at 72 hours
Method in brief: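 Cell Counting Kit-8 read-out of A549 growth after 72 hours of inhibitor exposure, cells plated in 96-well format. Values reported as IC50.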

HT-1197 cells = assay: Cell-based assay: anti-proliferative activity, Cell Counting Kit-8, 72 hours (HT-1197, negative control without MELK expression); settings: HT1197 cells, no MELK expression (negative control), Cell Counting Kit-8 at 72 hours
Method in brief: as §1

Compound | IC50 (MELK) [µM] | IC50 (BT-549 cells; Homo sapiens, BT-549, 72 h) [µM] | IC50 (T47D cells; Homo sapiens, T47D, 72 h) [µM] | IC50 (A549 cells; Homo sapiens, A549, 72 h) [µM] | IC50 (HT-1197 cells; Homo sapiens, HT1197, 72 h) [µM] | IC50 (MELK; dihydrochloride) [µM] | IC50 (BT-549 cells; dihydrochloride) [µM] | IC50 (T47D cells; dihydrochloride) [µM] | IC50 (A549 cells; dihydrochloride) [µM] | IC50 (HT-1197 cells; dihydrochloride) [µM] | IC50 (A549 cells) [µM]
COc1cc(-c2ccc3ncc(C(=O)C4CC4)c(N[C@H]4CC[C@H](N)CC4)c3c2)ccc1O [Example 81, {4-[trans-4-Aminocyclohexylamino]-6-(4-hydroxy-3-methoxyphenyl)quinolin-3-yl}(cyclopropyl)methanone] | 0.007 | 0.55 | 0.13 | 0.23 | 1.2 |  |  |  |  |  | 
N#Cc1ncc(-c2ccc3ncc(C(=O)C4CC4)c(N[C@H]4CC[C@H](N)CC4)c3c2)cn1 [Example 96, 5-{4-[trans-4-Aminocyclohexylamino]-3-(cyclopropanecarbonyl)quinolin-6-yl}pyrimidine-2-carbonitrile] | 0.0024 | 0.93 | 0.29 | 1.3 | 1.5 |  |  |  |  |  | 
CC(C)C(=O)c1cnc2ccc(-c3ccc(C#N)nc3)cc2c1N[C@H]1CC[C@H](N)CC1 [Example 108, 5-{4-[trans-4-Aminocyclohexylamino]-3-isobutyrylquinolin-6-yl}picolinonitrile] | 0.03 | 14 | 6.1 | 13 | 15 |  |  |  |  |  | 
N[C@H]1CC[C@H](Nc2c(C(=O)C3CC3)cnc3ccc(-c4ccc5[nH]cnc5c4)cc23)CC1 [Example 116, {4-[trans-4-Aminocyclohexylamino]-6-(1H-benzo[d]imidazol-5-yl)quinolin-3-yl}(cyclopropyl)methanone] | 0.018 | 5.7 | 1.8 | 13 | 15 |  |  |  |  |  | 
N#Cc1ccc(-c2ccc3ncc(C(=O)C4CC4)c(N[C@H]4CC[C@H](N)CC4)c3c2)s1 [Example 119, 5-{4-[trans-4-Aminocyclohexylamino]-3-(cyclopropanecarbonyl)quinolin-6-yl}thiophene-2-carbonitrile] | 0.046 | 14 | 8.8 | 5.4 | 8 |  |  |  |  |  | 
COc1cc(-c2ccc3ncc(C(=O)C4CC4)c(N4CCC(CN(C)C)CC4)c3c2)ccc1O [Example 133, Cyclopropyl[4-{4-[(dimethylamino)methyl]piperidin-1-yl}-6-(4-hydroxy-3-methoxyphenyl)quinolin-3-yl]methanone] | 0.0036 | 1.7 | 0.7 | 0.79 | 1.9 |  |  |  |  |  | 
COc1cc(-c2ccc3ncc(C(=O)C4CC4)c(N4CCC5(CCNC5)CC4)c3c2)cc(Cl)c1O [Example 155, [6-(3-Chloro-4-hydroxy-5-methoxyphenyl)-4-(2,8-diazaspiro[4,5]decan-8-yl)quinolin-3-yl](cyclopropyl)methanone] | 0.004 | 0.79 | 0.43 | 0.68 | 2.4 |  |  |  |  |  | 
N[C@H]1CC[C@H](Nc2c(C(=O)C3CC3)cnc3ccc(-c4cc(F)c(O)c(F)c4)cc23)CC1 [Example 156, {4-[trans-4-Aminocyclohexylamino]-6-(3,5-difluoro-4-hydroxyphenyl)quinolin-3-yl}(cyclopropyl)methanone] | 0.023 | 0.16 | 0.095 | 0.88 | 3.1 |  |  |  |  |  | 
N[C@H]1CC[C@H](Nc2c(C(=O)C3CC3)cnc3ccc(-c4cc(Cl)c(O)c(Cl)c4)cc23)CC1 [Example 157(a), {4-[trans-4-Aminocyclohexylamino]-6-(3,5-dichloro-4-hydroxyphenyl)quinolin-3-yl}(cyclopropyl)methanone] | 0.0076 | 0.33 | 0.15 | 0.57 | 3.7 |  |  |  |  |  | 
N[C@H]1CC[C@H](Nc2c(C(=O)C3CC3)cnc3ccc(-c4cc(Cl)c(O)c(Cl)c4)cc23)CC1 [Example 157(b), {4-[trans-4-Aminocyclohexylamino]-6-(3,5-dichloro-4-hydroxyphenyl)quinolin-3-yl}(cyclopropyl)methanone dihydrochloride] |  |  |  |  |  | 0.003 | 0.31 | 0.096 | 0.3 | 4.7 | 
N[C@H]1CC[C@H](Nc2c(C(=O)C3CC3)cnc3ccc(-c4cc(Cl)c(O)cc4Cl)cc23)CC1 [Example 160, {4-[trans-4-Aminocyclohexylamino]-6-(2,5-dichloro-4-hydroxyphenyl)quinolin-3-yl}(cyclopropyl)methanone] | 0.072 | 0.39 | 0.28 | 0.68 | 1.2 |  |  |  |  |  | 
COc1cc(-c2ccc3ncc(C(=O)C4CC4)c(N[C@H]4CC[C@@H](N)CC4)c3c2)ccc1O [Example 165, {4-(cis-4-Aminocyclohexylamino)-6-(4-hydroxy-3-methoxyphenyl)quinolin-3-yl}(cyclopropyl)methanone] | 0.0019 | 0.93 | 0.57 | 0.45 | 2.1 |  |  |  |  |  | 
COc1cc(-c2ccc3ncc(C(=O)C4CC4)c(NC4CCN(C)CC4)c3c2)ccc1O [Example 177, Cyclopropyl[6-(4-hydroxy-3-methoxyphenyl)-4-(1-methylpiperidin-4-ylamino)quinolin-3-yl]methanone] | 0.026 | 2.6 | 0.88 | 0.83 | 2.3 |  |  |  |  |  | 
N[C@H]1CC[C@H](Nc2c(C(=O)C3CC3)cnc3ccc(-c4cc(F)c(O)c(Cl)c4)cc23)CC1 [Example 179, {4-[trans-4-Aminocyclohexylamino]-6-(3-chloro-5-fluoro-4-hydroxyphenyl)quinolin-3-yl}(cyclopropyl)methanone] | 0.0065 | 0.22 | 0.11 | 0.85 | 5.2 |  |  |  |  |  | 
N[C@H]1CC[C@@H](Nc2c(C(=O)C3CC3)cnc3ccc(-c4cc(F)c(O)c(F)c4)cc23)CC1 [Example 180, [4-(cis-4-Aminocyclohexylamino)-6-(3,5-difluoro-4-hydroxyphenyl)quinolin-3-yl](cyclopropyl)methanone] | 0.0026 | 0.3 | 0.17 | 0.9 | 4.5 |  |  |  |  |  | 
CC(C1CCN(c2c(C(=O)C3CC3)cnc3ccc(-c4cc(F)c(O)c(F)c4)cc23)CC1)N(C)C (stereo not drawn) [Example 181, Cyclopropyl[6-(3,5-difluoro-4-hydroxyphenyl)-4-{4-[1-(dimethylamino)ethyl]piperidin-1-yl}quinolin-3-yl]methanone] | 0.011 | 0.73 | 0.47 | 0.7 | 1.1 |  |  |  |  |  | 
CCN(CC)C1CCC(Nc2c(C(=O)C3CC3)cnc3ccc(-c4cc(Cl)c(O)c(OC)c4)cc23)CC1 (stereo not drawn) [Example 185(a), {6-(3-Chloro-4-hydroxy-5-methoxyphenyl)-4-[4-(diethylamino)cyclohexylamino]quinolin-3-yl}(cyclopropyl)methanone] | 0.0026 | 2 | 0.59 |  | 6.9 |  |  |  |  |  | 0.42
COc1cc(-c2ccc3ncc(C(=O)C4CC4)c(N4CCC(C(C)N(C)C)CC4)c3c2)ccc1O (stereo not drawn) [Example 187, Cyclopropyl(4-{4-[1-(dimethylamino)ethyl]piperidin-1-yl}-6-(4-hydroxy-3-methoxyphenyl)quinolin-3-yl)methanone] | 0.0034 | 2 | 0.44 | 0.65 | 2.2 |  |  |  |  |  | 
CCN(CC)C1CCC(Nc2c(C(=O)C3CC3)cnc3ccc(-c4ccc(O)c(Cl)c4)cc23)CC1 (stereo not drawn) [Example 192, {6-(3-Chloro-4-hydroxyphenyl)-4-[4-(diethylamino)cyclohexylamino]quinolin-3-yl}(cyclopropyl)methanone] | 0.011 | 1.3 | 0.57 | 0.42 | 2.2 |  |  |  |  |  | 
CCN(CC)C1CCC(Nc2c(C(=O)C3CC3)cnc3ccc(-c4ccc(O)c(OC)c4)cc23)CC1 (stereo not drawn) [Example 193, Cyclopropyl{4-[4-(diethylamino)cyclohexylamino]-6-(4-hydroxy-3-methoxyphenyl)quinolin-3-yl}methanone] | 0.007 | 2 | 0.52 | 0.59 | 4.2 |  |  |  |  |  | 
COc1cc(-c2ccc3ncc(C(=O)C4CC4)c(NCC4CCN(C)CC4)c3c2)cc(Cl)c1O [Example 201, {6-(3-Chloro-4-hydroxy-5-methoxyphenyl)-4-[(1-methylpiperidin-4-yl)methylamino]quinolin-3-yl}(cyclopropyl)methanone] | 0.0034 | 1.8 | 0.76 | 0.73 | 7.4 |  |  |  |  |  | 
